Source: patent US12258336B2, “Preparation of seimicarbazide-sensitive amine oxidase inhibitor and use thereof” (SHANGHAI ENNOVABIO PHARMACEUTICALS CO., LTD., priority 2018, dated 2025)
Read-outs that look alike come from different tables or passages of the source.

Biological target: T1, SSAO/VAP-1 (Rattus norvegicus, UniProt O08590)
T1 construct: from tissue; host or cells: rat plasma, brain, retina, small intestine, lung, liver, kidney
T1 sequence (O08590 1-763): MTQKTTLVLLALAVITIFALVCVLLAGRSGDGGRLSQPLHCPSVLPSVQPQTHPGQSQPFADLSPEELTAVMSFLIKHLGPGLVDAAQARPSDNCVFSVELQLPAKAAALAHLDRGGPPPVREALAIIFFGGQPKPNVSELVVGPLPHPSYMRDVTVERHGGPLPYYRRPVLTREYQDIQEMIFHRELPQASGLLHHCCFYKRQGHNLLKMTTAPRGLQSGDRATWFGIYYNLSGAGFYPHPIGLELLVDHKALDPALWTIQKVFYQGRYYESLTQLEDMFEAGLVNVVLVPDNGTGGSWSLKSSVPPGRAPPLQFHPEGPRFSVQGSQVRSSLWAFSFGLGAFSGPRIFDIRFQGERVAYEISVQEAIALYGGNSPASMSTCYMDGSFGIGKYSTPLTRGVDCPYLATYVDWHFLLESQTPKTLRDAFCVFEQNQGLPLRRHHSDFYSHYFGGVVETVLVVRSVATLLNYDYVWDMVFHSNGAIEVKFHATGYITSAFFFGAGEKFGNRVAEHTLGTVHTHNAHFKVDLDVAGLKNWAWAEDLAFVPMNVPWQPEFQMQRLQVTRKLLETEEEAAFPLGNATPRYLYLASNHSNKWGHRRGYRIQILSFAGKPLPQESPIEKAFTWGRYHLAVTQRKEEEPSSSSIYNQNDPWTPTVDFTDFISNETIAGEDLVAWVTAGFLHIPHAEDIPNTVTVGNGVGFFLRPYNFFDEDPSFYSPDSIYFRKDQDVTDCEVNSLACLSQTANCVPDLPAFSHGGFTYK
Test: Inhibitory activity on SSAO/VAP-1 in animal tissues after oral administration
Assay type: in vivo
Settings: 24 hours post single administration, mean ± SEM
Procedure: MAO-Glo Assay kit (Promega, V1402) was used to determine the activity of SSAO in animal tissues. After test compounds were adminstered to the animal, SSAO enzyme activity was calculated by measuring the activity of the monoamine oxidases in the animal tissue homogenate that was insensitive to MAO inhibitors Clogyline and Pargyline. The compounds were orally administered to rats at different doses, and same volume of vehicle was orally administered to control animals. Animal plasma, brain, retina, small intestine, lung, liver, and kidney were respectively collected 24 hours after administration (the animals were perfused with PBS before the collection of small intestine, lung, liver, and kidney) and stored in a −80° C. refrigerator until analysis. Each tissue was homogenized in tissue homogenate lysis buffer (20 mM HEPES, pH 7.4, 150 mM NaCl, 1 mM EDTA, 1 mM EGTA, 1% Triton X-100 and 1× Roche Complete protease inhibitor tablet). The homogenate was centrifuged at 12000 rpm at 4° C. for 30 minutes to remove tissue fragments. 5 μL of supernatant and 2 μL of mixture of Clogyline (10 μM) and Pargyline (10 μM) were incubated for 10 minutes at room temperature. Then 2 μL of substrate from MAO-Glo assay kit was added to the mixture, and reacted at room temperature for 60 minutes. Detection reagents were added to quench the reaction according to instructions. The fluorescein data was read by Biotek Neo2. The activity of monoamine oxidase in tissues that is not sensitive to MAO inhibitors was used to represent the activity of SSAO. Percentage of SSAO activity in administered animals was compared with that of control animals to calculate the compound inhibition rate.

[1] = brain, read-out: remaining SSAO activity percentage (SSAO activity %), Brain
[2] = plasma, read-out: remaining SSAO activity percentage (SSAO activity %), Plasma
[3] = retina, read-out: remaining SSAO activity percentage (SSAO activity %), Retina

Row | remaining activity at 0.6 mg/kg [1] [%] | remaining activity at 0.6 mg/kg [2] [%] | remaining activity at 0.6 mg/kg [3] [%] | SMILES | remaining activity at 1 mg/kg [1] [%] | remaining activity at 1 mg/kg [2] [%] | remaining activity at 1 mg/kg [3] [%]
1 | 49.1 ± 21.2 | 24.3 ± 5.2 | 28.7 ± 8.5 | COC1CC2CC1CN2c1ncc(OC/C(=C/F)CN)cn1 (stereo not drawn) [Example 2] |  |  | 
2 |  |  |  | NC/C(=C\F)COc1cnc(N2CCC3(CC2)COC3)nc1 [Example 3] | 55.6 ± 10.5 | 15.2 ± 2.6 | 8.9 ± 3.2
3 |  |  |  | COC1CC2CCC(C1)N2c1ncc(OC/C(=C/F)CN)cn1 (stereo not drawn) [Example 12] | 63.1 ± 12.1 | 25.6 ± 3 | 24.6 ± 3.5
4 | 27.3 ± 1.8 | 5.8 ± 2.1 | 8 ± 0.8 | CC1(C)CN(c2ncc(OC/C(=C/F)CN)cn2)CCN1C1COC1 [Example 10] |  |  | 
